Earlier results, collected in patent publication US8003118B2 (priority 2005, dated 2011).

- solubility in water: practically insoluble
SMILES: CO[C@H]1/C=C/O[C@@]2(C)Oc3c(C)c(O)c4c(O)c(c5c(nc6cc(C)ccn65)c4c3C2=O)NC(=O)/C(C)=C\C=C\[C@H](C)[C@H](O)[C@@H](C)[C@@H](O)[C@@H](C)[C@H](OC(C)=O)[C@@H]1C [rifaximin, (2S,16Z,18E,20S,21S,22R,23R,24R,25S,26S,27S,28E)-5,6,21,23,25-pentahydroxy-27-methoxy-2,4,11,16,20,22,24,26-octamethyl-2,7-(epoxypentadeca-[1,11,13]trienimino)benzofuro[4,5-e]pyrido[1,2-α]-benzimidazole-1,15(2H)-dione,25-acetate]
